62 molecules from US10633338B2, “Binding Function 3 (BF3) site compounds as therapeutics and methods for their use” (THE UNIVERSITY OF BRITISH COLUMBIA, priority 2014, dated 2020) can be followed below.

By IC50 is commonly meant the concentration that inhibits the measured activity by half.

One test has as its target T1, androgen receptor (AR) (Homo sapiens, UniProt P10275, T878A).
T1 construct: stably transfected eGFP-expressing LNCaP human prostate cancer cells (LN-ARR2PB-eGFP) containing an androgen responsive probasin-derived promoter; endogenous in cells; host or cells: LNCaP (LN-ARR2PB-eGFP)
T1 sequence (P10275 1-920 T878A): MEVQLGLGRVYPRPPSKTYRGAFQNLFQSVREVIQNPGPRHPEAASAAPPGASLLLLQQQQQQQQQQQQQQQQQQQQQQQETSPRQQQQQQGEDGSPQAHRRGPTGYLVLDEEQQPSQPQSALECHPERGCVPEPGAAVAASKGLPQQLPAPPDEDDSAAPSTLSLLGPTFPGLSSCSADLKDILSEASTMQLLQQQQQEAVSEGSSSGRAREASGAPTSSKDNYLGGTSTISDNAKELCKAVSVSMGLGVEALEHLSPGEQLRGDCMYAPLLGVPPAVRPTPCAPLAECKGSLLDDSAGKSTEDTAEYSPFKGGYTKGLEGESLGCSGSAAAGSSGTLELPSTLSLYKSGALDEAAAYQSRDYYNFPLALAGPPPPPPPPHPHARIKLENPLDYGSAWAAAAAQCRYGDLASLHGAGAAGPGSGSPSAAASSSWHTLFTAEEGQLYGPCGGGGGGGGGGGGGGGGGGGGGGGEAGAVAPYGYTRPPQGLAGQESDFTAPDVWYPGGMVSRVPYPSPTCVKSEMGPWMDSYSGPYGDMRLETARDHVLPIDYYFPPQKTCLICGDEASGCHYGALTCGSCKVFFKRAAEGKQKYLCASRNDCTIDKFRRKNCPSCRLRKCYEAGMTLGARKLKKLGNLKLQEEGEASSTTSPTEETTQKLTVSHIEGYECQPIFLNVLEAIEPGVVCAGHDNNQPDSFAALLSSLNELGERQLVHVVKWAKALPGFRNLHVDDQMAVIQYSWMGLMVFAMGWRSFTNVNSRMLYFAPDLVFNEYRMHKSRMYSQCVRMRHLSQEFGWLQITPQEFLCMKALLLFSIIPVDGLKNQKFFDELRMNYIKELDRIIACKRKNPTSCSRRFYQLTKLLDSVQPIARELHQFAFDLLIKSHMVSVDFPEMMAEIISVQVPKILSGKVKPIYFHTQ
Briefly: eGFP cellular AR transcription assay. Format: cell-based. To be noted: LN-ARR2PBeGFP LNCaP cells, 0.1 nM R1881, 3 days incubation. How it is done: After 5 days, the cells were plated into a 96-well plate (35,000 cells/well) with 0.1 nM of the synthetic androgen R1881 and increasing concentrations (0-100 μM) of compound.
After 5 days, the cells were plated into a 96-well plate (35,000 cells/well) with 0.1 nM R1881 and increasing concentrations (0-100 μM) of compound.
In this assay, the expression of eGFP is under the control of an androgen responsive probasin-derived promoter and can quantify AR transcriptional activity.
`CC1(C)c2ccccc2NC1c1c[nH]c2c(F)cccc12` (centres unmarked) [Compound 13555]: the “eGFP IC50” value is on record as “Inactive”.

Regarding `CC1(C)c2ccccc2NC1c1c[nH]c2c(C(=O)O)cccc12` (centres unmarked) [Compound 13557], the “eGFP IC50” value is given as “Inactive”.

The test is the same for the next values; noted with them: LN-ARR2PBeGFP LNCaP cells, 0.1 nM R1881, 3 days incubation; read-out: eGFP IC50.
Consider `Cc1[nH]c2ccccc2c1SCc1ccccc1F` [Compound 13224], for which the 50% inhibitory concentration (IC50) stood at 5 µM.

As to `N#Cc1cn(CCCOc2ccccc2Cl)c2ccccc12` [Compound 13232], the IC50 worked out at 10 µM.

As to `S=C(c1c[nH]c2ccccc12)N1CCOCC1` [Compound 13243], the IC50 was determined as 3.9 µM.

With `C(=C(c1ccccc1)c1ccccc1)c1c[nH]c2ccccc12` [Compound 13250], the IC50 turned out to be 4.7 µM.

Turning to `Cc1ccc(/N=N/c2c[nH]c3ccccc23)cc1` [Compound 13257], the IC50 turned out to be 4.2 µM.

As for `c1ccc(-c2ccccc2/N=N/c2c[nH]c3ccccc23)cc1` [Compound 13258], the IC50 is 6.8 µM.

As to `Cc1cccc2c1CCN2c1nc2ccccc2o1` [Compound 13260], the IC50 was found to be 2.7 µM.

As for `C[C@@H]1Cc2ccccc2N1c1nc2ccccc2o1` [Compound 13261], the IC50 is 2.1 µM.

Regarding `FC(F)(F)c1cccc(/N=C/c2c[nH]c3ccccc23)c1` [Compound 13303], the IC50 came to 4.5 µM.

`Cc1ccc(/N=C/c2c[nH]c3ccccc23)cc1C` [Compound 13310]: the IC50 worked out at 10.3 µM.

`Brc1ccc2c(c1)NC(c1c[nH]c3ccc(Br)cc13)C2` (centres unmarked) [Compound 13502]: the 50% inhibitory concentration (IC50) was found to be 4.1 µM.

Turning to `Brc1ccc2c(c1)CC(c1c[nH]c3ccc(Br)cc13)N2` (centres unmarked) [Compound 13503], the IC50 was found to be 4.5 µM.

Consider `Cn1c(-c2c[nH]c3ccccc23)cc2ccccc21` [Compound 13505], for which the IC50 turned out to be 3.4 µM.

Take `CC1(C)c2cc(Br)ccc2NC1c1c[nH]c2ccc(Br)cc12` (centres unmarked) [Compound 13512]: the IC50 was 6 µM.

Regarding `Cn1cc(C2Nc3ccccc3C2(C)C)c2ccccc21` (centres unmarked) [Compound 13516], the IC50 is 3.6 µM.

As to `CC1(C)c2ccccc2NC1c1c[nH]c2ccc(N)cc12` (centres unmarked) [Compound 13538], the IC50 amounted to 7.7 µM.

In the case of `Brc1ccc2[nH]c(-c3nc4ccccc4s3)cc2c1` [Compound 13540], the IC50 stood at 2.5 µM.

Regarding `CC1(C)c2cc(Br)ccc2NC1c1c[nH]c2cc(O)ccc12` (centres unmarked) [Compound 13542], the half-maximal inhibitory concentration (IC50) was 5.7 µM.

As for `CC1(C)c2ccccc2NC1c1c[nH]c2cc(OCc3ccccc3)ccc12` (centres unmarked) [Compound 13544], the half-maximal inhibitory concentration (IC50) came to 11.4 µM.

For the molecule `c1ccc(COc2ccc3c(C4Nc5ccccc5C45CCCCC5)c[nH]c3c2)cc1` (centres unmarked) [Compound 13550], the IC50 turned out to be 11.8 µM.

On to `Oc1ccc2c(C3Nc4ccccc4C34CCCCC4)c[nH]c2c1` (centres unmarked) [Compound 13551], for which the IC50 worked out at 15.5 µM.

For `c1ccc2c(c1)N=C(c1c[nH]c3cnccc13)C21CCCCC1` [Compound 13559], the IC50 was 6.6 µM.

Regarding `CC1(C)c2ccccc2NC1c1c[nH]c2cnccc12` (centres unmarked) [Compound 13561], the IC50 is 10.7 µM.

For the molecule `Fc1cccc2c(-c3ccc4ccccc4n3)c[nH]c12` [Compound 13569], the IC50 was 1.6 µM.

Regarding `Cc1[nH]c2ccccc2c1-c1ccc2ccccc2n1` [Compound 13570], the IC50 worked out at 20 µM.

Take `Cn1cc(-c2ccc3ccccc3n2)c2ccccc21` [Compound 13571]: the IC50 was 1.1 µM.

With `Cc1cccc2c(-c3ccc4cc(F)ccc4n3)c[nH]c12` [Compound 13573], the IC50 came to 0.56 µM.

With `Cc1ccc2c(-c3ccc4ccccc4n3)c[nH]c2c1` [Compound 13574], the IC50 turned out to be 2.57 µM.

Turning to `FC(F)(F)c1ccc2c(-c3ccc4ccccc4n3)c[nH]c2c1` [Compound 13580], the IC50 was 2.9 µM.

Turning to `c1ccc(COc2ccc3c(-c4ccc5ccccc5n4)c[nH]c3c2)cc1` [Compound 13589], the IC50 is 5.3 µM.

Consider `Clc1ccc(Cl)c2c(-c3ccc4ccccc4n3)c[nH]c12` [Compound 13640], for which the half-inhibitory concentration (IC50) was 12.7 µM.

In the case of `Cc1cccc2c(-c3ccc4nccnc4n3)c[nH]c12` [Compound 13644], the IC50 is 3 µM.

In the case of `Cc1ccc(F)c2c(-c3ccc4ccccc4n3)c[nH]c12` [Compound 13650], the IC50 was 1.63 µM.

Take `Fc1cc2[nH]cc(-c3ccc4cccc(F)c4n3)c2cc1F` [Compound 13651]: the IC50 was determined as 0.404 µM.

Regarding `Cc1cccc2c(-c3ccc4c(CO)cccc4n3)c[nH]c12` [Compound 13680], the IC50 stood at 0.8 µM.

Regarding `CNC(=O)c1cccc2nc(-c3c[nH]c4c(F)cccc34)ccc12` [Compound 13713], the IC50 came to 0.037 µM.

Turning to `N#Cc1cc(F)cc2c(-c3ccc4cccc(Cl)c4n3)c[nH]c12` [Compound 13732], the IC50 was 0.42 µM.

On to `CNC(=O)c1cccc2nc(-c3c[nH]c4c(N5CCOCC5)c(F)c(F)cc34)ccc12` [Compound 13775], for which the IC50 was determined as 3.7 µM.

Turning to `Cc1cccc2c(-c3ccc4c(-c5cncs5)cccc4n3)c[nH]c12` [Compound 13782], the IC50 was determined as 0.11 µM.

As for `N#Cc1cccc2c(-c3ccc4cccc(Cl)c4n3)c[nH]c12` [Compound 13785], the IC50 was found to be 0.036 µM.

Consider `N#Cc1cccc2c(-c3ccc4ccc(F)cc4n3)c[nH]c12` [Compound 13786], for which the IC50 came out at 0.013 µM.

Regarding `Cc1c(F)ccc2c(-c3ccc4cccc(Br)c4n3)c[nH]c12` [Compound 13787], the IC50 was 0.19 µM.

The test system of a further test is PSA. Kind of test: Prostate Surface Antigen (PSA) assay, PSA excreted into the media. Format: cell-based, human. To be noted: Homo sapiens, 72 h, PSA excreted into media, same plates as eGFP assay, 3 days incubation; read-out: PSA IC50. How it is done: The evaluation of PSA excreted into the media was performed in parallel to the eGFP assay using the same plates (see above description). After the cells were incubated for 3 days 150 μl of the media was taken from each well, and added to 150 μl of PBS.
On to `Cc1ccc(/N=C/c2c[nH]c3ccccc23)cc1` [Compound 13247], for which the IC50 was 0.43 µM.

With `Cc1cccc2c(-c3ccc4ccccc4n3)c[nH]c12` [Compound 13566], the half-maximal inhibitory concentration (IC50) was 0.011 µM.

For the molecule `Cc1cccc2c(-c3ccc4cccc(Cl)c4n3)c[nH]c12` [Compound 13593], the IC50 turned out to be 0.13 µM.

Turning to `CNC(=O)c1cccc2nc(-c3c[nH]c4c(C)cccc34)ccc12` [Compound 13597], the IC50 is 0.132 µM.

For the molecule `Cc1cc(F)cc2c(-c3ccc4ccccc4n3)c[nH]c12` [Compound 13601], the concentration for half-maximal inhibition (IC50) amounted to 0.165 µM.

On to `Cc1cccc2c(-c3ccc4c(C(F)(F)F)cccc4n3)c[nH]c12` [Compound 13602], for which the IC50 is 0.182 µM.

Consider `Cc1cccc2c(-c3ccc4ccc(Cl)cc4n3)c[nH]c12` [Compound 13606], for which the IC50 was determined as 1.43 µM.

On to `Cc1c(F)ccc2c(-c3ccc4ccccc4n3)c[nH]c12` [Compound 13607], for which the IC50 was found to be 0.087 µM.

Regarding `Fc1cc(F)c2[nH]cc(-c3ccc4ccccc4n3)c2c1` [Compound 13610], the concentration for half-maximal inhibition (IC50) amounted to 0.013 µM.

On to `Cc1cccc2c(-c3ccc4ccc(F)cc4n3)c[nH]c12` [Compound 13611], for which the IC50 is 0.121 µM.

In the case of `Fc1ccc2c(-c3ccc4ccccc4n3)c[nH]c2c1F` [Compound 13618], the IC50 came out at 0.13 µM.

On to `Clc1cccc2c(-c3ccc4ccccc4n3)c[nH]c12` [Compound 13622], for which the IC50 was determined as 0.075 µM.

Consider `Fc1cc(Cl)c2[nH]cc(-c3ccc4ccccc4n3)c2c1` [Compound 13624], for which the IC50 was 0.042 µM.

As for `Cc1cc(Cl)c2[nH]cc(-c3ccc4ccccc4n3)c2c1` [Compound 13625], the IC50 turned out to be 1.23 µM.

For `Clc1cc(Cl)c2[nH]cc(-c3ccc4ccccc4n3)c2c1` [Compound 13627], the IC50 is 1.16 µM.

Staying with this test, now noted: Homo sapiens, 72 h, read-out: IC50 (PSA).
Regarding `Cc1cccc2c(-c3ccc4ccccc4n3)c[nH]c12` [13 566], the concentration for half-maximal inhibition (IC50) stood at 0.056 µM.

The test is the same for the next values; noted with them: Homo sapiens, 72 h, same plates as eGFP assay, media after 3 days; read-out: IC50 (PSA).
In the case of `Cc1cccc2c(-c3ccc4cccc(Br)c4n3)c[nH]c12` [13 677], the IC50 was 0.11 µM.

The test is the same for the next values; noted with them: same plates as eGFP assay, media after 3 days.
In the case of `c1ccc(-c2nc3ccccc3[nH]2)cc1` [13 686], the “IC50 (PSA)” value is reported as “IC50 (PSA) = Inactive”.
